# Legend:
# Format in all cases: cell-based
# [1] = test system: Primary human coronary artery vascular smooth muscle cells; experiment: VSMC intracellular and cytosolic CAV1, EGFR, TNAP (immunoblot, activity assay, confocal); conditions: OS + 2.5 μM, 14 days
# Protocol: To assess the activity of intracellular tissue non-specific alkaline phosphatase (TNAP), a colorimetric assay kit (BioVision, K412) was used. VSMCs (n=3) after 14 days and osteoblasts (n=3) after 7 days, were lysed in 120 μL assay buffer. 80 μL of each sample were mixed with 50 μL of 5 mM pNPP solution and incubated for 60 min at 25° C. The colorimetric change resulting from the reaction was detected using a plate reader to measure absorbance at 405 nm. The results were normalized to the total protein for associated samples measured by a BCA protein assay (BioVision, K813).
# VSMCs were treated with control, OS, and OS supplemented with tyrphostin AG1478 (2.5 μM) for 14 days. At the experiment endpoint, using a subcellular protein fraction kit for cultured cells (Thermofisher, 78840), cytosolic fraction was isolated according to the manufacturer's protocol. Briefly, VSMCs were harvested using 0.25% trypsin solution and resuspended in cytoplasmic extraction buffer. After 10 min incubation at 4° C., the samples were centrifuged at 1000×g for 5 min and the supernatants were collected as cytosolic fractions. The protein concentration for aortic tissue and VSMC fractions were quantified using a BCA assay and samples were prepared for protein immunoblotting.
# To quantify the total protein, the membranes were stained using 2% w/v Ponceau stain (Alfa Aesar, AAJ6074409) for 20 min, followed by one wash with 5% acetic acid and milliQ water for 5 min. After imaging, the intensity of each lane was measured in ImageJ for total protein normalization. Membranes were blocked with 5% w/v bovine serum albumin (HyClone, SH30574.01) in TBS-Tween (1×) for 1 hour. The membranes were incubated with primary antibodies of interest, including CAV1 (1:200, Abcam, ab2910), TNAP (1:200, Invitrogen, 702454), EGFR (1:00, EMD Millipore, 06-874), CD63 (1:200, Abeam, ab231975), GAPDH (1:100, Abcam, ab181602), and Annexin V (1:200, proteintech, 11060-1-AP) overnight at 4° C. After three washes with TBS-Tween (1×), the membranes were incubated with secondary antibody (1:1000, Li-Cor) for 1 hour, followed by three washes with TBS-Tween (1×). The protein bands were visualized with Odyssey CLx scanner (Li-Cor), and quantified using Image Studio Lite software (Li-Cor).
# VSMCs were fixed after 14 days of culture using formalin (10%) for 15 min and washed with PBS. A solution of PBS and Triton X (0.1% v/v) permeabilized the plasma membrane for 10 min at room temperature. To avoid non-specific antibody binding, the cells were incubated with a blocking buffer solution, consisting of BSA (1% w/v) and glycine (22.5 mg/mL) in PBS for 30 min at room temperature. Next, the cells were incubated for 2 hours with primary antibody against CAV1 (1:200), and washed three times with PBS. Cells were then incubated with a secondary antibody, Alexa Fluor 594 (1:500, Abeam, ab150080) for 1 hour at room temperature, following by three washes with PBS. The nuclei were stained using DAPI (0.2 mg/mL, Cayman Chemical, 14285). […]
# [2] = test system: Primary human coronary artery vascular smooth muscle cells; experiment: VSMC osteogenic marker gene expression (qRT-PCR); conditions: OS + 2.5 μM vs OS, 14 days
# Protocol: Primary human coronary artery vascular smooth muscle cells, (VSMCs, ATCC, PCS-100-021) were cultured using vascular smooth muscle cell media and growth kit (ATCC, PCS-100-042). VSMCs (passage 4-6) were harvested using 0.05% trypsin-EDTA solution (Caisson Labs, TRL04) and seeded with a density of 26,320 cells.cm^-2 and incubated for 72 hours at 37° C., 5% CO2 with controlled humidity prior to treatment. […] OS media were supplemented with 10 mM β-glycerophosphate (Sigma, 13408-09-8), 0.1 mM L-ascorbic acid (Sigma, 113170-55-1), and 10 nM dexamethasone (Sigma, 50-02-2). To assess the role of EGFR inhibition, tyrphostin AG1478 (Millipore Sigma, T4182) was dissolved in vehicle (DMSO:Methanol, 1:1) and added to OS media to a final concentration of 2.5 μM. An equal volume of vehicle was added to the control and OS groups. […] On days 6, 13, 20, and 27 the media were replaced by an extracellular-vesicle-free (EV-free) media (ultracentrifuged for 15 hours at 100,000×g at 4° C. to remove background EVs common in the serum). After 24 hours, conditioned media were collected on days 7, 14, 21, and 28. […] To perform the quantitative real time polymerase chain reaction (qRT-PCR), Power SYBR Green RNA-to-CT 1-Step Kit (Applied Biosystems, 4391178) was used. […] The relative gene expression levels were calculated using comparative CT method, considering control groups as the reference. […]
# [3] = test system: Primary human coronary artery vascular smooth muscle cells; experiment: EVs isolated from VSMC cultures: protein immunoblot and TNAP activity
# Protocol: To assess the role of EGFR inhibition, tyrphostin AG1478 (Millipore Sigma, T4182) was dissolved in vehicle (DMSO:Methanol, 1:1) and added to OS media to a final concentration of 2.5 μM. An equal volume of vehicle was added to the control and OS groups. It shown that 28 days in OS culture media led to robust calcification by VSMCs; therefore, all cultures (n=3, independent donors, male and female) were treated for 28 days and media were replaced every three days. On days 6, 13, 20, and 27 the media were replaced by an extracellular-vesicle-free (EV-free) media (ultracentrifuged for 15 hours at 100,000×g at 4° C. to remove background EVs common in the serum). After 24 hours, conditioned media were collected on days 7, 14, 21, and 28. Collected media were centrifuged at 1,000×g for 5 min to remove cell debris. EV isolation was performed using ultracentrifugation (Beckman Coulter, Optima MAX-TL) at 100,000×g for 1 hour.
# For EV TNAP activity measurement, after ultracentrifugation at 100,000×g for 1 hour, the pellets were re-suspended in 120 μL buffer assay. The assessment was performed using the same assay protocol described for intracellular TNAP activity and the results were normalized to the total protein for each sample. For mice serum TNAP activity, the samples were diluted 1:20 and assessment was performed according to the manufacturer's protocol.
# VSMCs, osteoblasts, isolated EVs (either from cells or mouse aortas), and matrix vesicles (from osteoblasts) were lysed in RIPA lysis and extraction buffer supplemented with protease inhibitor. After adding Laemmli SDS-sample buffer (1:4 v/v, Boston BioProducts, BP-110R) to each lysate, the samples were denatured at 100° C. for 10 min, loaded into 7.5-12% 1-mm SDS-PAGE gel (15 to 20 μg protein per lane), and run at 170 V. The proteins were then transferred to Trans-Blot turbo nitrocellulose membranes (BIO-RAD, 1704158) at 25 V for 7 min.
# To quantify the total protein, the membranes were stained using 2% w/v Ponceau stain (Alfa Aesar, AAJ6074409) for 20 min, followed by one wash with 5% acetic acid and milliQ water for 5 min. After imaging, the intensity of each lane was measured in ImageJ for total protein normalization. Membranes were blocked with 5% w/v bovine serum albumin (HyClone, SH30574.01) in TBS-Tween (1×) for 1 hour. The membranes were incubated with primary antibodies of interest, including CAV1 (1:200, Abcam, ab2910), TNAP (1:200, Invitrogen, 702454), EGFR ([…], EMD Millipore, 06-874), CD63 (1:200, Abeam, ab231975), GAPDH (1:100, Abcam, ab181602), and Annexin V (1:200, proteintech, 11060-1-AP) overnight at 4° C. After three washes with TBS-Tween (1×), the membranes were incubated with secondary antibody (1:1000, Li-Cor) for 1 hour, followed by three washes with TBS-Tween (1×). The protein bands were visualized with Odyssey CLx scanner (Li-Cor), and quantified using Image Studio Lite software (Li-Cor).
smiles,measurement,setting,value
"COc1cc2ncnc(Nc3cccc(Cl)c3)c2cc1OC [AG1478, tyrphostin AG1478]",intracellular TNAP activity in VSMCs,[1]; compared to control,elevated
same,cytosolic TNAP in VSMCs,[1]; compared to control (p=0.003) and OS (p=0.005),elevated
same,cytosolic CAV1 in VSMCs,[1]; compared to control (p=0.02) and OS (p=0.04),elevated
same,total level of intracellular CAV1 in VSMCs,[1]; compared to control group,significantly increased
same,intracellular EGFR protein in VSMCs,[1]; p=0.84,prevented the OS-induced increase
same,Gene expression of osteogenic marker ALPL in VSMCs,[2]; p=0.1,no significant differences
same,Gene expression of osteogenic marker RUNX2 in VSMCs,[2]; p=0.42,no significant differences
same,level of CD63 on EVs from VSMCs,"[3]; 28 days of culture, across in vitro groups, p=0.9",preserved
same,level of Annexin V on EVs from VSMCs,"[3]; OS + 2.5 μM, day 28",reduced levels
same,level of EGFR on EVs from VSMCs,"[3]; OS + 2.5 μM, day 28",reduced levels
same,EV TNAP activity (VSMC cultures),"[3]; OS + 2.5 μM, days 14, 21, 28",reduced
same,release of CAV1-positive EVs by VSMCs,"[3]; OS + 2.5 μM, days 14, 21, 28",reduced
same,CD63 protein within EVs from vascular SMCs,"[3]; pro-calcific media + 2.5 μM, 14 days, vs control and pro-calcific media",no differences

# From patent US11612601B1, “Targeting epidermal growth factor to treat vascular calcification” (THE FLORIDA INTERNATIONAL UNIVERSITY BOARD OF TRUSTEES, priority 2022, dated 2023)
